Test results reported in patent EP1477169A1, “Reactions of polymorphs of N-methyl-N-(3-(3-(2-thienylcarbonyl)-pyrazol-(1,5-alpha)-pyrimidin-7-yl)phenyl)acetamide” (Neurocrine Biosciences, Inc., priority 1999, dated 2001).
≈ marks a conversion by molar mass, not a printed value.

What was measured:
[1] = Approximate solubility in various solvents; format: physicochemical; details: for Solubility: approximate
Text: In addition, the lower melting point polymorph, Form II, also has significant advantages over the polymorphic mixture of Compound 1 as prepared according to known techniques. […] Form II is generally more soluble in polar and protic solvents than is Form I. Enhanced solubility of a compound will generally increase the bioavailability of that compound. When absorption of a drug is dissolution rate limited, use of the more soluble and faster dissolving form improves the rate and extent of bioavailability.

[2] = Physical (polymorphic) stability of the solid form; format: physicochemical; details: in words, compared with the polymorphic mixture of Compound 1; stability toward conversion to a different polymorphic form
Text: The polymorph Form I is considered a heat stable form of Compound 1. By "heat stable" or ''physically stable" is meant that the Form I is stable toward conversion to the polymorph Form II; although, it may be labile toward degradation to other compounds.
As the higher melting point polymorph, Form I has significant advantages over the polymorphic mixture of Compound 1 prepared according to known techniques. […] This, in turn, enhances the milling and compaction properties of the drug substance.

SMILES | Solubility ([1]; Acetone) | Solubility ([1]; Acetonitrile) | Solubility ([1]; De-ionized water) | Solubility ([1]; Diethyl ether) | Solubility ([1]; Ethanol, absolute (100%)) | Solubility ([1]; Ethyl acetate) | Solubility ([1]; Hexane) | Solubility ([1]; Isopropanol) | Solubility ([1]; Methanol) | Solubility ([1]; Polyethylene Glycol 400, NF) | Solubility ([1]; Tetrahydrofuran) | Solubility ([1]; Toluene) | physical stability [2] | solubility in a range of organic solvents ([1]; in words, compared with Form I) | water solubility ([1]; in words, compared with Form I)
CC(=O)N(C)c1cccc(-c2ccnc3c(C(=O)c4cccs4)cnn23)c1 [Form I, N-methyl-N-(3-{3-[2-thienylcarbonyl]-pyrazol-[1,5-α]-pyrimidin-7-yl}phenyl)acetamide] | 4842 µg/mL (≈ 12.9 mM) | 6246 µg/mL (≈ 16.6 mM) | 8.3 µg/mL (≈ 0.022 mM) | 80 µg/mL (≈ 0.213 mM) | 1426 µg/mL (≈ 3.79 mM) | 1600 µg/mL (≈ 4.25 mM) | 41 µg/mL (≈ 0.109 mM) | 441 µg/mL (≈ 1.17 mM) | 1740 µg/mL (≈ 4.62 mM) | 3259 µg/mL (≈ 8.66 mM) | 9964 µg/mL (≈ 26.5 mM) | 997 µg/mL (≈ 2.65 mM) | superior physical stability |  | 
CC(=O)N(C)c1cccc(-c2ccnc3c(C(=O)c4cccs4)cnn23)c1 [Form II, N-methyl-N-(3-{3-[2-thienylcarbonyl]-pyrazol-[1,5-α]-pyrimidin-7-yl}phenyl)acetamide] | 6873 µg/mL (≈ 18.3 mM) | 8928 µg/mL (≈ 23.7 mM) | 18.8 µg/mL (≈ 0.0499 mM) | 51 µg/mL (≈ 0.135 mM) | 1722 µg/mL (≈ 4.57 mM) | 2160 µg/mL (≈ 5.74 mM) | 50 µg/mL (≈ 0.133 mM) | 457 µg/mL (≈ 1.21 mM) | 1915 µg/mL (≈ 5.09 mM) | 10100 µg/mL (≈ 26.8 mM) | 14740 µg/mL (≈ 39.2 mM) | 645 µg/mL (≈ 1.71 mM) |  | generally greater solubility in a range of organic solvents as compared to Form I | superior water solubility over Form I
